Experimental data from ChEMBL document CHEMBL3045238, “Structure-Activity Studies of Insecticidal 2-Methoxy-1, 3, 2-oxazaphospholidine 2-Sulfides against Musca domestica and Tribolium castaneum” (J Pestic Sci, 1990).

Key:
Tribolium castaneum = assay: Insecticidal activity against fourth-instar Tribolium castaneum (red flour beetle) assessed as inhibition of larval weight gain at 30 degC measured after 2 days by feeding method; assay type: functional
Musca domestica = assay: Insecticidal activity against female Musca domestica (house fly) assessed as mortality compound topically applied to the abdomen measured per fly after 24 hr; assay type: functional

COP1(=S)NCC(CCc2ccccc2)O1 (configuration not stated)
I50 (Tribolium castaneum): >100 ppm
LD50 (Musca domestica): >1 µg

COP1(=S)NCC2(O1)C1CCC(C1)C2(C)C (configuration not stated)
I50 (Tribolium castaneum): >100 ppm
LD50 (Musca domestica): >1 µg

COP1(=S)NCC(C)(c2cccc3ccccc23)O1 (configuration not stated)
I50 (Tribolium castaneum): >100 ppm
LD50 (Musca domestica): >1 µg

COP1(=S)NCC(Cc2ccccc2)O1 (configuration not stated)
I50 (Tribolium castaneum): >100 ppm
LD50 (Musca domestica): >1 µg

COP1(=S)NCC(c2ccccc2)O1 (configuration not stated)
I50 (Tribolium castaneum): 43 ppm
LD50 (Musca domestica): 0.035 µg
pLD50 (Musca domestica): 3.82

COP1(=S)NCC(c2ccc(C(F)(F)F)cc2)O1 (configuration not stated)
I50 (Tribolium castaneum): >100 ppm
LD50 (Musca domestica): >1 µg

COP1(=S)NCC(c2ccccc2)(C(C)C)O1 (configuration not stated)
I50 (Tribolium castaneum): >100 ppm
LD50 (Musca domestica): >1 µg

COP1(=S)NCC(C(C)c2ccccc2)O1 (configuration not stated)
I50 (Tribolium castaneum): >100 ppm
LD50 (Musca domestica): >1 µg

COP1(=S)NCC(c2cc(Cl)cc(Cl)c2)O1 (configuration not stated)
I50 (Tribolium castaneum): >100 ppm
LD50 (Musca domestica): >1 µg

COc1cc(OC)cc(C2CNP(=S)(OC)O2)c1 (configuration not stated)
I50 (Tribolium castaneum): >100 ppm
LD50 (Musca domestica): 1.12 µg

COP1(=S)NCC2(CCCC(C)C2)O1 (configuration not stated)
I50 (Tribolium castaneum): >100 ppm
LD50 (Musca domestica): >1 µg

COP1(=S)NCC(c2cccc3ccccc23)O1 (configuration not stated)
I50 (Tribolium castaneum): 25 ppm
LD50 (Musca domestica): 0.68 µg

COP1(=S)NCC(c2ccc(Cl)c(Cl)c2)O1 (configuration not stated)
I50 (Tribolium castaneum): >100 ppm
LD50 (Musca domestica): >1 µg

COP1(=S)NCC(C)(c2ccccc2F)O1 (configuration not stated)
I50 (Tribolium castaneum): >100 ppm
LD50 (Musca domestica): 1.26 µg

COP1(=S)NCC(c2ccc(Cl)cc2)O1 (configuration not stated)
I50 (Tribolium castaneum): >100 ppm
LD50 (Musca domestica): 0.16 µg
pLD50 (Musca domestica): 3.22

COP1(=S)NCC(c2cccc(Cl)c2Cl)O1 (configuration not stated)
I50 (Tribolium castaneum): >100 ppm
LD50 (Musca domestica): >1 µg

COc1cc(C2CNP(=S)(OC)O2)cc(OC)c1OC (configuration not stated)
I50 (Tribolium castaneum): >100 ppm
LD50 (Musca domestica): >1 µg

COP1(=S)NCC(c2ccc(F)cc2)O1 (configuration not stated)
I50 (Tribolium castaneum): >100 ppm
LD50 (Musca domestica): 0.083 µg
pLD50 (Musca domestica): 3.47

COP1(=S)NCC(c2cc(F)cc(F)c2)O1 (configuration not stated)
I50 (Tribolium castaneum): >100 ppm
LD50 (Musca domestica): >1 µg

COP1(=S)NCC(c2ccccc2C(F)(F)F)O1 (configuration not stated)
I50 (Tribolium castaneum): >100 ppm
LD50 (Musca domestica): >1 µg

COP1(=S)NCC(c2ccccc2C)O1 (configuration not stated)
I50 (Tribolium castaneum): 35 ppm
LD50 (Musca domestica): 0.27 µg
pLD50 (Musca domestica): 2.95

COc1cccc(C2(C)CNP(=S)(OC)O2)c1 (configuration not stated)
I50 (Tribolium castaneum): >100 ppm
LD50 (Musca domestica): >1 µg

COP1(=S)NCC(c2ccc(Br)cc2)O1 (configuration not stated)
I50 (Tribolium castaneum): >100 ppm
LD50 (Musca domestica): 0.21 µg
pLD50 (Musca domestica): 3.13

COP1(=S)NCC2(Cc3ccccc3C2)O1 (configuration not stated)
I50 (Tribolium castaneum): >100 ppm
LD50 (Musca domestica): >1 µg

COP1(=S)NCC(c2c(F)cccc2F)O1 (configuration not stated)
I50 (Tribolium castaneum): >100 ppm
LD50 (Musca domestica): 0.82 µg

COP1(=S)NCC2(CC3CCC2(C)C3(C)C)O1 (configuration not stated)
I50 (Tribolium castaneum): >100 ppm
LD50 (Musca domestica): >1 µg

COP1(=S)NCC(c2cccc(C(F)(F)F)c2)O1 (configuration not stated)
I50 (Tribolium castaneum): >100 ppm
LD50 (Musca domestica): >1 µg

COP1(=S)NCC(c2cccc(F)c2F)O1 (configuration not stated)
I50 (Tribolium castaneum): >100 ppm
LD50 (Musca domestica): >1 µg

COc1ccc(OC)c(C2CNP(=S)(OC)O2)c1 (configuration not stated)
I50 (Tribolium castaneum): 22 ppm
LD50 (Musca domestica): >1 µg

COP1(=S)NCC(c2ccccc2)(c2ccccc2)O1 (configuration not stated)
I50 (Tribolium castaneum): >100 ppm
LD50 (Musca domestica): >1 µg

COP1(=S)NCC(c2cc(C)ccc2C)O1 (configuration not stated)
I50 (Tribolium castaneum): 84 ppm
LD50 (Musca domestica): 0.23 µg

COc1cccc(C2CNP(=S)(OC)O2)c1OC (configuration not stated)
I50 (Tribolium castaneum): 6.6 ppm
LD50 (Musca domestica): 0.53 µg

COc1ccccc1C1CNP(=S)(OC)O1 (configuration not stated)
I50 (Tribolium castaneum): 41 ppm
LD50 (Musca domestica): >1 µg

COP1(=S)NCC(c2ccc3ccccc3c2)O1 (configuration not stated)
I50 (Tribolium castaneum): 11 ppm
LD50 (Musca domestica): 0.64 µg

COP(=S)(OC)Oc1ccc([N+](=O)[O-])c(C)c1 [FENITROTHION]
I50 (Tribolium castaneum): 4.7 ppm
LD50 (Musca domestica): 0.051 µg

COP1(=S)NCC(c2c(Cl)cccc2Cl)O1 (configuration not stated)
I50 (Tribolium castaneum): 49 ppm
LD50 (Musca domestica): >1 µg

COP1(=S)NCC(c2ccc(C)cc2C)O1 (configuration not stated)
I50 (Tribolium castaneum): 33 ppm
LD50 (Musca domestica): 0.73 µg

COP1(=S)NCC(c2cccc(Br)c2)O1 (configuration not stated)
I50 (Tribolium castaneum): 59 ppm
LD50 (Musca domestica): 0.2 µg
pLD50 (Musca domestica): 3.19

COP1(=S)NCC(c2ccc(F)c(F)c2)O1 (configuration not stated)
I50 (Tribolium castaneum): >100 ppm
LD50 (Musca domestica): 0.59 µg

COP1(=S)NCC(C2CC=CCC2)O1 (configuration not stated)
I50 (Tribolium castaneum): >100 ppm
LD50 (Musca domestica): >1 µg

COP1(=S)NCC(c2ccccc2Cl)O1 (configuration not stated)
I50 (Tribolium castaneum): 72 ppm
LD50 (Musca domestica): 0.53 µg
pLD50 (Musca domestica): 2.7

COP1(=S)NCC(c2ccc(F)cc2F)O1 (configuration not stated)
I50 (Tribolium castaneum): >100 ppm
LD50 (Musca domestica): 0.35 µg

COP1(=S)NCC(C)(c2cccc(C)c2)O1 (configuration not stated)
I50 (Tribolium castaneum): >100 ppm
LD50 (Musca domestica): >1 µg

COP1(=S)NCC(c2ccc(C)cc2)O1 (configuration not stated)
I50 (Tribolium castaneum): 5.5 ppm
LD50 (Musca domestica): 0.084 µg
pLD50 (Musca domestica): 3.46

COP1(=S)NCC(c2ccc(Cl)cc2Cl)O1 (configuration not stated)
I50 (Tribolium castaneum): >100 ppm
LD50 (Musca domestica): 0.8 µg

COP1(=S)NCC(C)(c2ccccc2)O1 (configuration not stated)
I50 (Tribolium castaneum): >100 ppm
LD50 (Musca domestica): 0.88 µg

COP1(=S)NCC(C)(c2cccc(Br)c2)O1 (configuration not stated)
I50 (Tribolium castaneum): >100 ppm
LD50 (Musca domestica): 0.29 µg

COP1(=S)NCC(c2ccc([N+](=O)[O-])cc2)O1 (configuration not stated)
I50 (Tribolium castaneum): >100 ppm
LD50 (Musca domestica): >1 µg

COP1(=S)NCC(c2ccc(-c3ccccc3)cc2)O1 (configuration not stated)
I50 (Tribolium castaneum): 62 ppm
LD50 (Musca domestica): >1 µg

COc1ccc(C2CNP(=S)(OC)O2)cc1OC (configuration not stated)
I50 (Tribolium castaneum): >100 ppm
LD50 (Musca domestica): >1 µg

COP1(=S)NCC2(CCCc3ccccc32)O1 (configuration not stated)
I50 (Tribolium castaneum): >100 ppm
LD50 (Musca domestica): >1 µg

COP1(=S)NCC(c2cccc(Cl)c2)O1 (configuration not stated)
I50 (Tribolium castaneum): >100 ppm
LD50 (Musca domestica): 0.24 µg
pLD50 (Musca domestica): 3.04

COP1(=S)NCC(c2cccc(Oc3ccccc3)c2)O1 (configuration not stated)
I50 (Tribolium castaneum): >100 ppm
LD50 (Musca domestica): >1 µg

CCOC(OCC)C1(c2ccccc2)CNP(=S)(OC)O1 (configuration not stated)
I50 (Tribolium castaneum): >100 ppm
LD50 (Musca domestica): >1 µg

COP1(=S)NCC2(CCCCC2)O1 (configuration not stated)
I50 (Tribolium castaneum): >100 ppm
LD50 (Musca domestica): >1 µg

COP1(=S)NCC(c2cccc(F)c2)O1 (configuration not stated)
I50 (Tribolium castaneum): >100 ppm
LD50 (Musca domestica): 0.16 µg
pLD50 (Musca domestica): 3.19

COP1(=S)NCC(c2ccc3c(c2)OCO3)O1 (configuration not stated)
I50 (Tribolium castaneum): >100 ppm
LD50 (Musca domestica): >1 µg

COP1(=S)NCC(c2cc(F)ccc2F)O1 (configuration not stated)
I50 (Tribolium castaneum): >100 ppm
LD50 (Musca domestica): 0.32 µg

COP1(=S)NCC(C2CCCCC2)O1 (configuration not stated)
I50 (Tribolium castaneum): >100 ppm
LD50 (Musca domestica): >1 µg

COP1(=S)NCC(c2ccc(C(C)C)cc2)O1 (configuration not stated)
I50 (Tribolium castaneum): 5.2 ppm
LD50 (Musca domestica): 0.42 µg
pLD50 (Musca domestica): 2.81

CCc1ccc(C2CNP(=S)(OC)O2)cc1 (configuration not stated)
I50 (Tribolium castaneum): 3.7 ppm
LD50 (Musca domestica): 0.22 µg
pLD50 (Musca domestica): 3.07

COP1(=S)NCC(c2ccccc2Br)O1 (configuration not stated)
I50 (Tribolium castaneum): 49 ppm
LD50 (Musca domestica): 0.5 µg
pLD50 (Musca domestica): 2.79

COP1(=S)NCC(c2cccc([N+](=O)[O-])c2)O1 (configuration not stated)
I50 (Tribolium castaneum): >100 ppm
LD50 (Musca domestica): >1 µg

COc1cccc(C2CNP(=S)(OC)O2)c1 (configuration not stated)
I50 (Tribolium castaneum): 46 ppm
LD50 (Musca domestica): 0.18 µg
pLD50 (Musca domestica): 3.16

COP1(=S)NCC(c2cccc(C)c2)O1 (configuration not stated)
I50 (Tribolium castaneum): 15 ppm
LD50 (Musca domestica): >1 µg

COP1(=S)NCC(c2ccccc2F)O1 (configuration not stated)
I50 (Tribolium castaneum): 41 ppm
LD50 (Musca domestica): 0.14 µg
pLD50 (Musca domestica): 3.25
